Measurements as given in ChEMBL document CHEMBL3286227, “Guanidinium-based derivatives: searching for new kinase inhibitors” (Eur J Med Chem, 2014).
Activity calls are given as the source filed them. No cut-off for these calls is given here.

Experiments:
HL-60 [1] = test: Cell cycle arrest in human HL60 cells assessed as accumulation at G0/G1 phase at 1 uM after 72 hrs by propidium iodide staining-based flow cytometry (reference value: 65.7 +/- 0.1%); assay type: functional
HL-60 [2] = test: Cell cycle arrest in human HL60 cells assessed as accumulation at G0/G1 phase at 25 uM after 72 hrs by propidium iodide staining-based flow cytometry (reference value: 65.7 +/- 0.1%); assay type: functional
HL-60 [3] = test: Cell cycle arrest in human HL60 cells assessed as accumulation at G0/G1 phase at 50 uM after 72 hrs by propidium iodide staining-based flow cytometry (reference value: 65.7 +/- 0.1%); assay type: functional
HL-60 [4] = test: Cell cycle arrest in human HL60 cells assessed as accumulation at S phase at 1 uM after 48 hrs by propidium iodide staining-based flow cytometry (reference value: 21.5 +/- 1.0%); assay type: functional
HL-60 [5] = test: Cell cycle arrest in human HL60 cells assessed as accumulation at S phase at 10 uM after 48 hrs by propidium iodide staining-based flow cytometry (reference value: 21.5 +/- 1.0%); assay type: functional
HL-60 [6] = test: Cell cycle arrest in human HL60 cells assessed as accumulation at S phase at 1 uM after 72 hrs by propidium iodide staining-based flow cytometry (reference value: 16.4 +/- 0.8%); assay type: functional
HL-60 [7] = test: Cell cycle arrest in human HL60 cells assessed as accumulation at S phase at 25 uM after 72 hrs by propidium iodide staining-based flow cytometry (reference value: 16.4 +/- 0.8%); assay type: functional
HL-60 [8] = test: Cell cycle arrest in human HL60 cells assessed as accumulation at S phase at 50 uM after 72 hrs by propidium iodide staining-based flow cytometry (reference value: 16.4 +/- 0.8%); assay type: functional
HL-60 [9] = test: Cell cycle arrest in human HL60 cells assessed as accumulation at G2/M phase at 25 uM after 48 hrs by propidium iodide staining-based flow cytometry (reference value: 18.4 +/- 1.3%); assay type: functional
HL-60 [10] = test: Cell cycle arrest in human HL60 cells assessed as accumulation at G2/M phase at 50 uM after 48 hrs by propidium iodide staining-based flow cytometry (reference value: 18.4 +/- 1.3%); assay type: functional
HL-60 [11] = test: Cell cycle arrest in human HL60 cells assessed as accumulation at G2/M phase at 10 uM after 72 hrs by propidium iodide staining-based flow cytometry (reference value: 14.8 +/- 0.7%); assay type: functional
HL-60 [12] = test: Cell cycle arrest in human HL60 cells assessed as accumulation at G2/M phase at 25 uM after 72 hrs by propidium iodide staining-based flow cytometry (reference value: 14.8 +/- 0.7%); assay type: functional
HL-60 [13] = test: Cell cycle arrest in human HL60 cells assessed as accumulation at G2/M phase at 50 uM after 72 hrs by propidium iodide staining-based flow cytometry (reference value: 14.8 +/- 0.7%); assay type: functional
HL-60 [14] = test: Cell cycle arrest in human HL60 cells assessed as accumulation at Gn phase at 10 uM after 48 hrs by propidium iodide staining-based flow cytometry (reference value: 2.49 +/- 0.4%); assay type: functional
HL-60 [15] = test: Cell cycle arrest in human HL60 cells assessed as accumulation at Gn phase at 25 uM after 48 hrs by propidium iodide staining-based flow cytometry (reference value: 2.49 +/- 0.4%); assay type: functional
HL-60 [16] = test: Cell cycle arrest in human HL60 cells assessed as accumulation at Gn phase at 50 uM after 48 hrs by propidium iodide staining-based flow cytometry (reference value: 2.49 +/- 0.4%); assay type: functional
HL-60 [17] = test: Cell cycle arrest in human HL60 cells assessed as accumulation at Gn phase at 1 uM after 72 hrs by propidium iodide staining-based flow cytometry (reference value: 2.49 +/- 0.3%); assay type: functional
HL-60 [18] = test: Cell cycle arrest in human HL60 cells assessed as accumulation at Gn phase at 10 uM after 72 hrs by propidium iodide staining-based flow cytometry (reference value: 2.49 +/- 0.3%); assay type: functional
HL-60 [19] = test: Cell cycle arrest in human HL60 cells assessed as accumulation at Gn phase at 25 uM after 72 hrs by propidium iodide staining-based flow cytometry (reference value: 2.49 +/- 0.3%); assay type: functional
[20] = biological target: Casein kinase I isoform delta (Homo sapiens, UniProt P48730); test: Inhibition of human recombinant casein kinase-1 delta using casein as substrate after 60 mins by kinase-glo luminescence assay
Sequence of Casein kinase I isoform delta (P48730 whole entry, canonical isoform): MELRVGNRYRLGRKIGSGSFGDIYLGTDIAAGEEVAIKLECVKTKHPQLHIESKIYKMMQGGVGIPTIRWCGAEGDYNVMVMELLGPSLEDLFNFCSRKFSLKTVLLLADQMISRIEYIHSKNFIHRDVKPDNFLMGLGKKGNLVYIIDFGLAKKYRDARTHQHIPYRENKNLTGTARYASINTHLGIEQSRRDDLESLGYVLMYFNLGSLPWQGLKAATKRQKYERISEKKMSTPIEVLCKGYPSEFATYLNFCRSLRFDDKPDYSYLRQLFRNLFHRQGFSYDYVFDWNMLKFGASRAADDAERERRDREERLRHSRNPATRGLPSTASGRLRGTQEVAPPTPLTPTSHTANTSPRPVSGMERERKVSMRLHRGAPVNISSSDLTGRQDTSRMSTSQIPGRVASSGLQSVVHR

[21] = biological target: Glycogen synthase kinase-3 beta (Homo sapiens, UniProt P49841); test: Inhibition of human recombinant GSK-3 beta after 30 mins by luminescence assay
Sequence of Glycogen synthase kinase-3 beta (P49841 whole entry): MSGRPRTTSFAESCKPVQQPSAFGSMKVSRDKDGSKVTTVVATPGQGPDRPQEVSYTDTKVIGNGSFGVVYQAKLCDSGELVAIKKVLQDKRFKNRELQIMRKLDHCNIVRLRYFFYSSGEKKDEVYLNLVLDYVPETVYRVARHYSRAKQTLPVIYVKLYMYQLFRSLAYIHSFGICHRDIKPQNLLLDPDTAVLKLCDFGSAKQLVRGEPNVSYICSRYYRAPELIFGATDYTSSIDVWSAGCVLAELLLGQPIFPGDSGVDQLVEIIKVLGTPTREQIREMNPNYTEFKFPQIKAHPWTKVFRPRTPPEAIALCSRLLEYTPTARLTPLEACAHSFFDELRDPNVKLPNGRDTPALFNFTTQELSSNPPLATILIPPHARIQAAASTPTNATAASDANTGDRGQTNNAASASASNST

[22] = biological target: Serine/threonine-protein kinase B-raf (Homo sapiens) (UniProt P15056); test: Competitive binding to B-RAF kinase (unknown origin) at 100 nM to 100 uM after 60 to 120 mins by FRET analysis
Sequence of Serine/threonine-protein kinase B-raf (Homo sapiens) (P15056 whole entry): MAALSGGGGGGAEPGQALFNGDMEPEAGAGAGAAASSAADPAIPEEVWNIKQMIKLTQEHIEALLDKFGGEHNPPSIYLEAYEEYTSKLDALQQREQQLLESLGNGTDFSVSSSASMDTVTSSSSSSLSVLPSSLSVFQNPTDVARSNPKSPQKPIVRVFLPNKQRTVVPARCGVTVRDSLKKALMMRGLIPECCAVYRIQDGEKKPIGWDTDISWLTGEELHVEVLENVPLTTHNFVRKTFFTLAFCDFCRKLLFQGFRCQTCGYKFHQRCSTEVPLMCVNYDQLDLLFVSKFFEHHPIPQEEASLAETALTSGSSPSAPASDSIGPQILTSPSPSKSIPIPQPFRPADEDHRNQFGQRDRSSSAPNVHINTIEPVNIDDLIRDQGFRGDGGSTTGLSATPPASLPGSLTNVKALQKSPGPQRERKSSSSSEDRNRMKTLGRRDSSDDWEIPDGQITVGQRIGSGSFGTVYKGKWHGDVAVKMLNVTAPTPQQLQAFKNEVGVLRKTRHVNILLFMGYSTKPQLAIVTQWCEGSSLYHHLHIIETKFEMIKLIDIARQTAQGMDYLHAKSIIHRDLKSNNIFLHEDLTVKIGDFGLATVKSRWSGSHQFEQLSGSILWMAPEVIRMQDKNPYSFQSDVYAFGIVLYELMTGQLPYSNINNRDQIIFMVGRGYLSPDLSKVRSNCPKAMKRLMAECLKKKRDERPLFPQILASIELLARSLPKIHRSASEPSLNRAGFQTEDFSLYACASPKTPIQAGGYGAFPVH

HL-60 [23] = test: Cytotoxicity against human HL60 cells after 72 hrs by Alamar Blue assay; assay type: functional, cell-based; details: HL-60, 72 h
HL-60 [24] = test: Induction of apoptosis in human HL60 cells assessed as cell shrinkage at 50 uM after 72 hrs by microscopy relative to vehicle-treated control; assay type: functional, cell-based
HL-60 [25] = test: Induction of apoptosis in human HL60 cells assessed as nuclear fragmentation at 50 uM after 72 hrs by microscopy relative to vehicle-treated control; assay type: functional, cell-based
HL-60 [26] = test: Induction of apoptosis in human HL60 cells assessed as cell membrane blebbing at 50 uM after 72 hrs by microscopy relative to vehicle-treated control; assay type: functional, cell-based
HL-60 [27] = test: Cell cycle arrest in human HL60 cells assessed as accumulation at pre-G1 phase at 1 uM after 48 hrs by propidium iodide staining-based flow cytometry (reference value: 0.17%); assay type: functional
HL-60 [28] = test: Cell cycle arrest in human HL60 cells assessed as accumulation at pre-G1 phase at 25 uM after 48 hrs by propidium iodide staining-based flow cytometry (reference value: 0.17%); assay type: functional
HL-60 [29] = test: Cell cycle arrest in human HL60 cells assessed as accumulation at pre-G1 phase at 50 uM after 48 hrs by propidium iodide staining-based flow cytometry (reference value: 0.17%); assay type: functional
HL-60 [30] = test: Cell cycle arrest in human HL60 cells assessed as accumulation at pre-G1 phase at 1 uM after 72 hrs by propidium iodide staining-based flow cytometry (reference value: 0.14%); assay type: functional
HL-60 [31] = test: Cell cycle arrest in human HL60 cells assessed as accumulation at pre-G1 phase at 10 uM after 72 hrs by propidium iodide staining-based flow cytometry (reference value: 0.14%); assay type: functional
HL-60 [32] = test: Cell cycle arrest in human HL60 cells assessed as accumulation at pre-G1 phase at 25 uM after 72 hrs by propidium iodide staining-based flow cytometry (reference value: 0.14%); assay type: functional
HL-60 [33] = test: Cell cycle arrest in human HL60 cells assessed as accumulation at pre-G1 phase at 50 uM after 72 hrs by propidium iodide staining-based flow cytometry (reference value: 0.14%); assay type: functional
HL-60 [34] = test: Cell cycle arrest in human HL60 cells assessed as accumulation at G0/G1 phase at 1 uM after 48 hrs by propidium iodide staining-based flow cytometry (reference value: 57.0 +/- 1.0%); assay type: functional
HL-60 [35] = test: Cell cycle arrest in human HL60 cells assessed as accumulation at G0/G1 phase at 25 uM after 48 hrs by propidium iodide staining-based flow cytometry (reference value: 57.0 +/- 1.0%); assay type: functional

SMILES: Cl.N=C(N)Nc1ccc(Oc2cccc(NC(=N)Nc3ccc(Cl)c(C(F)(F)F)c3)c2)cc1
- Activity (HL-60 [1]): 61.7%
- Activity (HL-60 [2]): 73.4%
- Activity (HL-60 [3]): 43.7%
- Activity (HL-60 [4]): 20.6%
- Activity (HL-60 [5]): 14.7%
- Activity (HL-60 [6]): 17.1%
- Activity (HL-60 [7]): 4.19%
- Activity (HL-60 [8]): 14.4%
- Activity (HL-60 [9]): 20.2%
- Activity (HL-60 [10]): 18.6%
- Activity (HL-60 [11]): 18.9%
- Activity (HL-60 [12]): 12.9%
- Activity (HL-60 [13]): 13.6%
- Activity (HL-60 [14]): 2.17%
- Activity (HL-60 [15]): 2.17%
- Activity (HL-60 [16]): 3.14%
- Activity (HL-60 [17]): 3.23%
- Activity (HL-60 [18]): 3.36%
- Activity (HL-60 [19]): 2.56%
- IC50 [20]: > 100 µM
- IC50 [21]: > 100 µM
- Activity [22]: inactive
- IC50 (HL-60 [23]): 9.72 µM
- Activity (HL-60 [24]): Active
- Activity (HL-60 [25]): Active
- Activity (HL-60 [26]): Active
- Activity (HL-60 [27]): 0.13%
- Activity (HL-60 [28]): 1.75%
- Activity (HL-60 [29]): 12.5%
- Activity (HL-60 [30]): 0.13%
- Activity (HL-60 [31]): 0.23%
- Activity (HL-60 [32]): 2.22%
- Activity (HL-60 [33]): 25.1%
- Activity (HL-60 [34]): 56.6%
- Activity (HL-60 [35]): 69.2%
